How the values were obtained:
IKKε = IKKε (Homo sapiens (Human), UniProt Q14164); test: IKKε TR-FRET enzymatic assay; type: biochemical; settings: TR-FRET, 2×Km ATP; geometric mean of minimum four determinations; read-out: IKKe IC50
hJAK2 = hJAK2 (Homo sapiens (Human), UniProt O60674); test: hJAK2 LANCE TR-FRET enzymatic assay; type: biochemical; settings: read-out: JAK2 IC50
TBK1 = TBK1 (Homo sapiens (Human), UniProt Q9UHD2); test: TBK1 TR-FRET enzymatic assay;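 note: phosphorylation of a biotinylated Ser/Thr peptide by purified full-length recombinant TBK1, read by TR-FRET after 240 min at 25 °C, IC50 is the geometric mean of at least four runs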
Sequence of TBK1 (Q9UHD2 whole entry): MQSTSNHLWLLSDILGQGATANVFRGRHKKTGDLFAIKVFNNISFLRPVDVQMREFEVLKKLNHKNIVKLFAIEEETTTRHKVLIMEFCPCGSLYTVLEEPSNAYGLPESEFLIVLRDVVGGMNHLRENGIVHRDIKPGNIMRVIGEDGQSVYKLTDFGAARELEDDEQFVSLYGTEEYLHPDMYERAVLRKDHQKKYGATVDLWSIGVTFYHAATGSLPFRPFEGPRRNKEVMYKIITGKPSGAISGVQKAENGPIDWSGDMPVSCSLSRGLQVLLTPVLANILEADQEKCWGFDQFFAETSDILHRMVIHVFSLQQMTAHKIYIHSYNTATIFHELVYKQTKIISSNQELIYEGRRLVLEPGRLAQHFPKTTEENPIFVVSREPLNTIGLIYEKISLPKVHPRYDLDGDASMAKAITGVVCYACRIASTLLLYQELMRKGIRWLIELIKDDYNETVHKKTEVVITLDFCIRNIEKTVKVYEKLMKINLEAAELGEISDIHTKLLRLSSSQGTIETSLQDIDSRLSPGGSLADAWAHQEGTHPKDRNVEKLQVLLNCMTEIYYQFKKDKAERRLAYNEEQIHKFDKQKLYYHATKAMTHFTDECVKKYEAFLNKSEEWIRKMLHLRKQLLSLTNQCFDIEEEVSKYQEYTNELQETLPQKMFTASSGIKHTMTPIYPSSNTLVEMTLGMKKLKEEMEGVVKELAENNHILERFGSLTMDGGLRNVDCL

Sequence of hJAK2 (O60674 whole entry): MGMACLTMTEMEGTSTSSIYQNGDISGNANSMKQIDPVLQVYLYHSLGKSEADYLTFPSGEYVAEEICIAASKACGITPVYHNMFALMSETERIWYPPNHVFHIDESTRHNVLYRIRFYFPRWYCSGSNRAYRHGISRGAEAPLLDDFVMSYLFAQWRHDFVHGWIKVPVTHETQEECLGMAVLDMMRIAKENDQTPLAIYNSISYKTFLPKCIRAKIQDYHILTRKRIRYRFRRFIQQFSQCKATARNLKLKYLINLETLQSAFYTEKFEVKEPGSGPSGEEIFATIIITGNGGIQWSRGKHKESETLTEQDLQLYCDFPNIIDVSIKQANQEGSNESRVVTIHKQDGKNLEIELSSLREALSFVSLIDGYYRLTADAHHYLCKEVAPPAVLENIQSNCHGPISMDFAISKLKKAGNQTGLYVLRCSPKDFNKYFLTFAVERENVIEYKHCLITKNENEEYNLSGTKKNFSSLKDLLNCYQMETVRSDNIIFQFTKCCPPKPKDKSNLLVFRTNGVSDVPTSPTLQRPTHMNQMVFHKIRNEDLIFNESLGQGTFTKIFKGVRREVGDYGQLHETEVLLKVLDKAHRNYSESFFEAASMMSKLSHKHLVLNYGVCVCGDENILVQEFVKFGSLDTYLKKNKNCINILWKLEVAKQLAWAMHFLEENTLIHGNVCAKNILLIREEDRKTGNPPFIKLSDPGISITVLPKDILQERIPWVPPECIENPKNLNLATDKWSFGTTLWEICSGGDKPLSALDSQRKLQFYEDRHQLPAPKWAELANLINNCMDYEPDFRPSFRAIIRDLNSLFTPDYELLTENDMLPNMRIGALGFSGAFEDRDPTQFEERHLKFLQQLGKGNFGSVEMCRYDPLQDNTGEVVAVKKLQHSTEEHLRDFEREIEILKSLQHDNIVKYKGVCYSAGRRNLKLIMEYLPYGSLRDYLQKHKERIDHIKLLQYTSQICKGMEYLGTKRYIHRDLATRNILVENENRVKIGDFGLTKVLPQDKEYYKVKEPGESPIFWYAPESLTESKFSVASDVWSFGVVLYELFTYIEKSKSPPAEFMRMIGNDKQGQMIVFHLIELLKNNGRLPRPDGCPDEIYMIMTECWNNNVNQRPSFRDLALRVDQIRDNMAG
Sequence of IKKε (Q14164 whole entry): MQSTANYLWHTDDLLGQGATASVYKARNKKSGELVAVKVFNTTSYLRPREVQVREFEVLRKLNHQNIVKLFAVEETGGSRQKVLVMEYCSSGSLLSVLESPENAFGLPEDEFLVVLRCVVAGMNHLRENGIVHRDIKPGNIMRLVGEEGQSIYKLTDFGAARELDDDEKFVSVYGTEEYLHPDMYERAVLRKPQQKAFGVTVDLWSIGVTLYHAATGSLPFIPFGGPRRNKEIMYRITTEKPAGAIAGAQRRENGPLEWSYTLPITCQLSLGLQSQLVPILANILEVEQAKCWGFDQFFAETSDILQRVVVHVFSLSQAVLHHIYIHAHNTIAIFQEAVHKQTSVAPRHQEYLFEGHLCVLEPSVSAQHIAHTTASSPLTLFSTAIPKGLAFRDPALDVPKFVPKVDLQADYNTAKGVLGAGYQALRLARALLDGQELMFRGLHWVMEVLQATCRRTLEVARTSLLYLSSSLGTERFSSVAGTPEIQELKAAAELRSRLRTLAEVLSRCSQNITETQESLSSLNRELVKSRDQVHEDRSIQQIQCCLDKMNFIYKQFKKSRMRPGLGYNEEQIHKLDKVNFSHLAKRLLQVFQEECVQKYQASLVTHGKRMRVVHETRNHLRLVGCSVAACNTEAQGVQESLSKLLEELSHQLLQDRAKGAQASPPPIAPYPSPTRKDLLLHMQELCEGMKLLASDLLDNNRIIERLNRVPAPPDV

| SMILES | IC50 (IKKε) [nM] | IC50 (hJAK2) [nM] | IC50 (TBK1) [nM] |
| --- | --- | --- | --- |
| CC1(C)CN(C(=O)[C@@H]2CCC(=O)N2)C[C@@H](F)[C@H]1Oc1ccc(-c2ncnc(Nc3ccc(N4CCN(C5COC5)CC4)cc3)n2)cc1C#N [Example 445, 2-(((4S,5R)-5-fluoro-3,3-dimethyl-1-((S)-5-oxopyrrolidine-2-carbonyl)piperidin-4-yl)oxy)-5-(4-((4-(4-(oxetan-3-yl)piperazin-1-yl)phenyl)amino)-1,3,5-triazin-2-yl)benzonitrile] | 5 | 90 | 5 |
| N#Cc1cc(-c2ncnc(Nc3ccc(N4CCN(C5COC5)CC4)cc3)n2)ccc1OC1CNC(=O)C(F)(F)C1 (stereo not drawn) [Example 446, 2-((5,5-difluoro-6-oxopiperidin-3-yl)oxy)-5-(4-((4-(4-(oxetan-3-yl)piperazin-1-yl)phenyl)amino)-1,3,5-triazin-2-yl)benzonitrile] | 33 | 153 | 48 |
| NC(=O)c1cc(-c2ncnc(Nc3ccc(N4CCN(C5COC5)CC4)cc3)n2)ccc1OC1CNC(=O)C(F)(F)C1 (stereo not drawn) [Example 447, 2-((5,5-difluoro-6-oxopiperidin-3-yl)oxy)-5-(4-((4-(4-(oxetan-3-yl)piperazin-1-yl)phenyl)amino)-1,3,5-triazin-2-yl)benzamide] | 197 | 15 | 65 |
| N#Cc1cc(-c2ncnc(Nc3ccc(N4CCN(C5COC5)CC4)cc3)n2)ccc1O[C@H]1CCN(C(=O)c2ccnn2CCO)C[C@H]1F [Example 448, 2-(((3R,4S)-3-fluoro-1-(1-(2-hydroxyethyl)-1H-pyrazole-5-carbonyl)piperidin-4-yl)oxy)-5-(4-((4-(4-(oxetan-3-yl)piperazin-1-yl)phenyl)amino)-1,3,5-triazin-2-yl)benzonitrile] | 84 | 213 | 54 |
| CC1(C)CN(C(=O)CC#N)C[C@H](F)[C@@H]1Oc1ccc(-c2ncnc(Nc3ccc(N4CCN(C5COC5)CC4)cc3)n2)cc1C#N [Example 449, 2-(((4R,5S)-1-(2-cyanoacetyl)-5-fluoro-3,3-dimethylpiperidin-4-yl)oxy)-5-(4-((4-(4-(oxetan-3-yl)piperazin-1-yl)phenyl)amino)-1,3,5-triazin-2-yl)benzonitrile] | 59 | 443 | 35 |
| CC1(C)CN(C(=O)CC#N)C[C@@H](F)[C@H]1Oc1ccc(-c2ncnc(Nc3ccc(N4CCN(C5COC5)CC4)cc3)n2)cc1C#N [Example 450, 2-(((4S,5R)-1-(2-cyanoacetyl)-5-fluoro-3,3-dimethylpiperidin-4-yl)oxy)-5-(4-((4-(4-(oxetan-3-yl)piperazin-1-yl)phenyl)amino)-1,3,5-triazin-2-yl)benzonitrile] | 3 | 48 | 3 |
| Cc1n[nH]c(C(=O)N2CC[C@H](Oc3ccc(-c4ncnc(Nc5ccc(N6CCN(C7COC7)CC6)cc5)n4)cc3C#N)C(F)(F)C2)n1 [Example 452, (S)-2-((3,3-difluoro-1-(3-methyl-1H-1,2,4-triazole-5-carbonyl)piperidin-4-yl)oxy)-5-(4-((4-(4-(oxetan-3-yl)piperazin-1-yl)phenyl)amino)-1,3,5-triazin-2-yl)benzonitrile] | 1 | 23 | 3 |
| N#Cc1cc(-c2ncnc(Nc3cnn(C(F)F)c3)n2)ccc1O[C@H]1CCNC[C@H]1F [Example 453, 5-(4-((1-(difluoromethyl)-1H-pyrazol-4-yl)amino)-1,3,5-triazin-2-yl)-2-(((3R,4S)-3-fluoropiperidin-4-yl)oxy)benzonitrile] | 577 | ≥ 1000 | 39 |
| CC(C)(C)n1cc(Nc2ncnc(-c3ccc(O[C@H]4CCN(C(=O)CCO)C[C@H]4F)c(C#N)c3)n2)cn1 [Example 458, 5-(4-((1-(tert-butyl)-1H-pyrazol-4-yl)amino)-1,3,5-triazin-2-yl)-2-(((3R,4S)-3-fluoro-1-(3-hydroxypropanoyl)piperidin-4-yl)oxy)benzonitrile] | 61 | 223 | 23 |
| CC(C)(C)n1cc(Nc2ncnc(-c3ccc(O[C@H]4CCN(C(=O)CC#N)C[C@H]4F)c(C#N)c3)n2)cn1 [Example 459, 5-(4-((1-(tert-butyl)-1H-pyrazol-4-yl)amino)-1,3,5-triazin-2-yl)-2-(((3R,4S)-1-(2-cyanoacetyl)-3-fluoropiperidin-4-yl)oxy)benzonitrile] | 22 | 108 | 11 |
| C[C@H](O)C(=O)N1CC[C@H](Oc2ccc(-c3ncnc(Nc4ccc(N5CCO[C@@H](CO)C5)cc4)n3)cc2C#N)C(F)(F)C1 [Example 460, 2-(((S)-3,3-difluoro-1-((S)-2-hydroxypropanoyl)piperidin-4-yl)oxy)-5-(4-((4-((R)-2-(hydroxymethyl)morpholino)phenyl)amino)-1,3,5-triazin-2-yl)benzonitrile] | 1 | 131 | 2 |
| CC(C)[C@H](O)C(=O)N1CC[C@H](Oc2ccc(-c3ncnc(Nc4ccc(N5CCN(C6COC6)CC5)cc4)n3)cc2C#N)[C@H](F)C1 [Example 461, 2-(((3R,4S)-3-fluoro-1-((S)-2-hydroxy-3-methylbutanoyl)piperidin-4-yl)oxy)-5-(4-((4-(4-(oxetan-3-yl)piperazin-1-yl)phenyl)amino)-1,3,5-triazin-2-yl)benzonitrile] | 63 | 930 | 16 |
| C[C@H](O)C(=O)N1CC[C@H](Oc2ccc(-c3ncnc(Nc4ccc(N5CCN(C6COC6)CC5=O)cc4)n3)cc2C#N)[C@H](F)C1 [Example 462, 2-(((3R,4S)-3-fluoro-1-((S)-2-hydroxypropanoyl)piperidin-4-yl)oxy)-5-(4-((4-(4-(oxetan-3-yl)-2-oxopiperazin-1-yl)phenyl)amino)-1,3,5-triazin-2-yl)benzonitrile] | 4 | ≥ 1000 | 3 |
| Cn1cc(C(O)C(=O)N2CC[C@H](Oc3ccc(-c4ncnc(Nc5ccc(N6CCN(C7COC7)CC6)cc5)n4)cc3C#N)[C@H](F)C2)cn1 (stereo partly drawn) [Example 463, 2-(((3R,4S)-3-fluoro-1-(2-hydroxy-2-(1-methyl-1H-pyrazol-4-yl)acetyl)piperidin-4-yl)oxy)-5-(4-((4-(4-(oxetan-3-yl)piperazin-1-yl)phenyl)amino)-1,3,5-triazin-2-yl)benzonitrile] | 68 | 272 | 30 |
| CC(C)[C@@H](O)C(=O)N1CC[C@H](Oc2ccc(-c3ncnc(Nc4ccc(N5CCN(C6COC6)CC5)cc4)n3)cc2C#N)[C@H](F)C1 [Example 465, 2-(((3R,4S)-3-fluoro-1-((R)-2-hydroxy-3-methylbutanoyl)piperidin-4-yl)oxy)-5-(4-((4-(4-(oxetan-3-yl)piperazin-1-yl)phenyl)amino)-1,3,5-triazin-2-yl)benzonitrile] | 364 | 706 | 146 |
| N#CCC(=O)N1CC[C@H](Oc2ccc(-c3ncnc(Nc4ccc(N5CCO[C@@H](CO)C5)cc4)n3)cc2C#N)[C@H](F)C1 [Example 467, 2-(((3R,4S)-1-(2-cyanoacetyl)-3-fluoropiperidin-4-yl)oxy)-5-(4-((4-((R)-2-(hydroxymethyl)morpholino)phenyl)amino)-1,3,5-triazin-2-yl)benzonitrile] | 4 | 171 | 4 |
